Data reported in publication PMC2191296 (The Journal of Experimental Medicine, 1993).

Tests used:
H-2Dd = H-2Dd (Mus musculus, UniProt P01900); assay: Solution phase competition assay; assay type: binding; conditions: data not shown
mAb 34-5-8S = assay: Control: binding of free peptide to the immobilized 34-5-8S antibody surface; conditions: free peptide without H-2Dd at concentrations as high as 222 uM; SPR
[1] = Solubility of synthetic peptides in water; assay type: physicochemical; conditions: peptides dissolved in dH2O; insoluble ones reconstituted in 20% DMSO

H-2Dd, sequence (P01900 whole entry, looked up): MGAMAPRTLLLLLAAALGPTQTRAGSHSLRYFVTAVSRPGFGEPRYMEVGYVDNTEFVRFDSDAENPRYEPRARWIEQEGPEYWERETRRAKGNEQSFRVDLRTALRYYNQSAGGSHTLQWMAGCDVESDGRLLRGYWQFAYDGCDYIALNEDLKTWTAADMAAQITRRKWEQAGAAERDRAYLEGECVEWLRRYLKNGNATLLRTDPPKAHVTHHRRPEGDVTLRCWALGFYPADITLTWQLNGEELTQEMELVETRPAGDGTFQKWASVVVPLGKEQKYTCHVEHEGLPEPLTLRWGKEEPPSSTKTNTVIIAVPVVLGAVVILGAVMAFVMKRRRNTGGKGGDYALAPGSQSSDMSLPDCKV

AGPARAAAL [pD2359]
relative binding to H-2Dd (H-2Dd): binds better than pD239
signal of free peptide on immobilized 34-5-8S (mAb 34-5-8S): < 7 RU

SGPVALVNF [pD46B]
solubility in water / aqueous solution [1]: relative aqueous insolubility

SGPVALVNFI [pD46A]
solubility in water / aqueous solution [1]: relative aqueous insolubility
